Reference: patent US7709223B2, “Method for detecting bacteria with chromogenic substrates for β-D-ribofuranosidase” (priority 2001, dated 2010)
Where a name gives a salt, the structure may show the parent alone.

Columns and labels:
[1] = system: E. coli; experiment: Aluminium salt-containing medium with mixed culture; assay type: cell-based; settings: mixed culture of E. coli and Yersinia enterocolitica
Procedure: (§1) The substrate was evaluated using the general method of example 2 but using a range of different metal salts and a culture of E. coli alone. The metal salts shown in Table 5, below, were used at a concentration of 500 mg/l.
(§2) When the aluminium salt-containing medium was used with a mixed culture of E. coli and Yersinia enterocolitica, the E. coli colonies were bright yellow and stood out very clearly.

[2] = system: Yersinia enterocolitica; experiment: as above; assay type: cell-based; settings: mixed culture of E. coli and Yersinia enterocolitica
Procedure: as §1, §2

[3] = target: AMP nucleosidase (Escherichia coli, UniProt P0AE12); settings: N-ribohydrolase from E. coli, AMP nucleosidase (Schramm et al, WO97/31008); cited from earlier work
[4] = system: β-D-ribofuranosidase negative strains; experiment: Further substrates on agar plates, colony appearance; assay type: cell-based
Procedure: (§3) The chromogenic β-D-ribofuranoside substrate was added to Columbia agar at a substrate concentration of 300 mg/l. Ferric ammonium citrate was included at 500 mg/l. All ingredients were autoclaved at 116° C. for 20 minutes to ensure sterilisation. Agar plates were then prepared in 90 mm petri dishes. The substrate caused a yellow colouration of the agar.
(§4) For each strain tested, a bacterial suspension was prepared in sterile deionised water at an inoculum of approximately 1.5×10^8 colony forming units per ml. This was achieved using a densitometer. 1 μl of each bacterial suspension was then inoculated onto each plate using a multipoint inoculator. Strains were inoculated in parallel onto Columbia agar containing ferric ammonium citrate with no substrate (negative control).
(§5) After 18 hours incubation, strains were examined visually for the presence of colour. Any strains producing a black colouration on substrate containing media but not on the negative control plates were deemed to be hydrolysing the substrate.
(§6) The same evaluation method as described above in Example 2 was utilised.

[5] = system: E. aerogenes; experiment: Hydrolysis on Columbia agar with ferric ammonium citrate; assay type: cell-based; settings: E. aerogenes; weaker reaction
Procedure: as §3, §4, §5

[6] = system: K. pneumoniae; experiment: as above; assay type: cell-based; settings: K. pneumoniae
Procedure: as §3, §4, §5

[7] = system: Shigella sonnei; experiment: as above; assay type: cell-based; settings: S. sonnei
Procedure: as §3, §4, §5

[8] = system: E. coli; experiment: as above; assay type: cell-based; settings: E. coli; weaker reaction
Procedure: as §3, §4, §5

[9] = system: β-D-ribofuranosidase positive strains; experiment: Further substrates on agar plates, colony appearance; assay type: cell-based
Procedure: as §3, §4, §5, §6

[10] = system: E. coli; experiment: Evaluation with metal salts forming chelates, colour of colonies; assay type: cell-based
Procedure: as §3, §4, §5, §1

Chain of AMP nucleosidase (P0AE12 whole entry): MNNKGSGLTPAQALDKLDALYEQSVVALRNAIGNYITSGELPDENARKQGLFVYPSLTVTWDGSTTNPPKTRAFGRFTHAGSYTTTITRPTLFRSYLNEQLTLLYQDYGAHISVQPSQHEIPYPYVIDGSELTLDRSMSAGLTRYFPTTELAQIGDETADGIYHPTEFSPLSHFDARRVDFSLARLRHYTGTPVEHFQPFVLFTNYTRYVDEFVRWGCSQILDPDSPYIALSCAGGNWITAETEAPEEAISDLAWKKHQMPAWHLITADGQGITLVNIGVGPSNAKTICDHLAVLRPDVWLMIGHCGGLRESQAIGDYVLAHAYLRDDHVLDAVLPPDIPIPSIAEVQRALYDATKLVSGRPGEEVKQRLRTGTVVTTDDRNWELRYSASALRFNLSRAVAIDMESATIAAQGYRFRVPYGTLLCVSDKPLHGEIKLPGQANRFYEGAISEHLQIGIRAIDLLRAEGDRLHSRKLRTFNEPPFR

For COc1c(-c2ccc(O[C@@H]3O[C@H](CO)[C@@H](O)[C@H]3O)c(O)c2)oc2ccccc2c1=O, the “Colour of E. coli colonies” value [1] was “bright yellow” and the “Colour of Y. enterocolitica colonies” value [2] was “colourless”.

For O=[N+]([O-])c1ccc(O[C@@H]2O[C@H](COP(=O)(O)O)[C@@H](O)[C@H]2O)cc1 [p-Nitrophenyl β-D-ribofuranoside-5-phosphate], the Activity as substrate [3] is given as “inactive”.

With O=Cc1ccc(OC2OC(CO)C(O)C2O)c(O)c1 [Example 1.4, 3,4-Dihydroxybenzaldehyde-4β-D-ribofuranoside sodium salt] the Colony appearance [4] was “cream colonies”, the Colony appearance [5] was “paler colonies” and the Colony appearance [6] was “Dark brown colonies”. For the same compound, the Colony appearance [7] was “Dark brown colonies” and the Colony appearance [8] was “paler colonies”.

With O=C1/C(=C/c2ccc(OC3OC(CO)C(O)C3O)c(O)c2)Oc2ccccc21 [Example 1.7, 3′,4′-Dihydroxyaurone-4′-β-D-ribofuranoside] the Colony appearance [9] was “pale brown colonies”.

For COc1c(-c2ccc(O[C@@H]3O[C@H](CO)[C@@H](O)[C@H]3O)c(O)c2)oc2ccccc2c1=O [Example 6, 3′4′-dihydroxy-3-methoxy-flavone-4′-β-D-ribofuranoside], the Colour of colonies ([10]; No metal) was “Diffuse yellow”, the Colour of colonies ([10]; metal salt Al 500 mg/l) was “Yellow” and the Colour of colonies ([10]; metal salt Ba 500 mg/l) was “Yellow”. For the same compound, the Colour of colonies ([10]; metal salt Bi 500 mg/l) was “Rusty orange”, the Colour of colonies ([10]; metal salt Co 500 mg/l) was “No growth” and the Colour of colonies ([10]; metal salt Fe 500 mg/l) was “Brown”. The Colour of colonies ([10]; metal salt Mn 500 mg/l) was “Pale orange”, the Colour of colonies ([10]; metal salt Sn 500 mg/l) was “Yellow” and the Colour of colonies ([10]; metal salt Sr 500 mg/l) was “Yellow”. The Colour of colonies ([10]; metal salt Zn 500 mg/l) was “No growth”.

For “3,4-Dihydroxybenzaldehydesemicarbazone-4-β-D-ribofuranoside [Example 1.5]”, the Colony appearance [4] was “cream colonies” and the Colony appearance [9] was “diffuse brown colonies”.
